Source: patent US12290596B2, “Compositions and methods for the treatment of opioid overdose” (priority 2021, dated 2025)

Assay: Three-treatment crossover pharmacokinetics of IN nalmefene, three dosing regimens (Example 13)
Conditions: for AUC(0-t) / AUC(0-inf) / Cmax / Vd/F: mean; for AUC(0-inf): AUCinf; for Vd/F: Vz/F; for concentration at 3 h / concentration at 4 h / concentration at 6 h / concentration at 8 h / concentration at 12 h / concentration at 18 h / concentration at 24 h / concentration at 48 h: T1 (3 mg IN, one spray in one nostril)
[1] = Treatment A (T1) 3 mg in one nostril
[2] = Treatment B (T2) 3 mg in each nostril (6 mg)
[3] = Treatment C (T3) 6 mg in one nostril
[4] = human, plasma, other: intranasal (IN spray), 3 mg, Treatment A (T1) 3 mg in one nostril
[5] = human, plasma, other: intranasal (IN spray), 3 mg, […], Max
[6] = human, plasma, other: intranasal (IN spray), 3 mg, […], Median
[7] = human, plasma, other: intranasal (IN spray), 3 mg, […], Min
[8] = human, plasma, other: intranasal (IN spray), 6 mg, Treatment B (T2) 3 mg in each nostril (6 mg)
[9] = human, plasma, other: intranasal (IN spray), 6 mg, Treatment C (T3) 6 mg in one nostril

With `C=C1CC[C@@]2(O)[C@H]3Cc4ccc(O)c5c4[C@@]2(CCN3CC2CC2)[C@H]1O5` [Nalmefene, 17-cyclopropylmethyl-4,5α-epoxy-6-methylenemorphinan-3,14-diol] the “Dose-normalized Cmax lower after Treatment C (T3) compared to Treatment A (T1)” value (ANOVA) was “approximately 19%”, the “AUC0-2.5 min/D, mean” value [1] was 0.00276 ng·h/mL/mg and the “AUC0-5 min/D, mean” value [1] was 0.0206 ng·h/mL/mg. For the same compound, the “AUC0-7.5 min/D, mean” value [1] was 0.0728 ng·h/mL/mg, the “AUC0-10 min/D, mean” value [1] was 0.160 ng·h/mL/mg and the “AUC0-15 min/D, mean” value [1] was 0.393 ng·h/mL/mg. For the same compound, the “AUC0-20 min/D, mean” value [1] was 0.639 ng·h/mL/mg, the “AUC0-30 min/D, mean” value [1] was 1.06 ng·h/mL/mg and the “AUCextrap, mean” value [1] was 4.22%. For the same compound, the “CL/F, mean” value [1] was 66.9 L/h, the “Cmax/D, mean” value [1] was 3.59 ng/mL/mg and the “AUC0-2.5 min/D, mean” value [2] was 0.0072 ng·h/mL/mg. The “AUC0-5 min/D, mean” value [2] was 0.0369 ng·h/mL/mg, the “AUC0-7.5 min/D, mean” value [2] was 0.106 ng·h/mL/mg and the “AUC0-10 min/D, mean” value [2] was 0.202 ng·h/mL/mg. For the same compound, the “AUC0-15 min/D, mean” value [2] was 0.445 ng·h/mL/mg, the “AUC0-20 min/D, mean” value [2] was 0.691 ng·h/mL/mg and the “AUC0-30 min/D, mean” value [2] was 1.08 ng·h/mL/mg. The “AUCextrap, mean” value [2] was 3.61%, the “AUClast/D, mean” value [2] was 14.4 ng·h/mL/mg and the “CL/F, mean” value [2] was 69.2 L/h. For the same compound, the “Cmax/D, mean” value [2] was 3.70 ng/mL/mg, the “AUC0-2.5 min/D, mean” value [3] was 0.00455 ng·h/mL/mg and the “AUC0-5 min/D, mean” value [3] was 0.0244 ng·h/mL/mg. For the same compound, the “AUC0-7.5 min/D, mean” value [3] was 0.0803 ng·h/mL/mg, the “AUC0-10 min/D, mean” value [3] was 0.165 ng·h/mL/mg and the “AUC0-15 min/D, mean” value [3] was 0.374 ng·h/mL/mg. The “AUC0-20 min/D, mean” value [3] was 0.588 ng·h/mL/mg, the “AUC0-30 min/D, mean” value [3] was 0.931 ng·h/mL/mg and the “AUCextrap, mean” value [3] was 4.18%. The “AUClast/D, mean” value [3] was 13.7 ng·h/mL/mg, the “CL/F, mean” value [3] was 73.3 L/h and the “Cmax/D, mean” value [3] was 3.15 ng/mL/mg. For the same compound, the half-life (human, plasma, other: intranasal (IN spray), 3 mg) was 11.4 h, the AUC(0-t) (human, plasma, other: intranasal (IN spray), 3 mg, AUC0-5 min, Treatment A (T1) 3 mg in one nostril) was 0.0618 ng·h/mL and the AUC(0-t) (human, plasma, other: intranasal (IN spray), 3 mg, AUC0-10 min, Treatment A (T1) 3 mg in one nostril) was 0.48 ng·h/mL. For the same compound, the AUC(0-t) (human, plasma, other: intranasal (IN spray), 3 mg, AUC0-15 min, Treatment A (T1) 3 mg in one nostril) was 1.18 ng·h/mL, the AUC(0-t) (human, plasma, other: intranasal (IN spray), 3 mg, AUC0-20 min, Treatment A (T1) 3 mg in one nostril) was 1.92 ng·h/mL and the AUC(0-t) (human, plasma, other: intranasal (IN spray), 3 mg, AUC0-30 min, Treatment A (T1) 3 mg in one nostril) was 3.19 ng·h/mL. It also gave an AUC(0-t) (human, plasma, other: intranasal (IN spray), 3 mg, AUC0-[…], Treatment A (T1) 3 mg in one nostril) of 0.219 ng·h/mL, an AUC(0-inf) [4] of 46.8 ng·h/mL and an AUC(0-t) (human, plasma, other: intranasal (IN spray), 3 mg, AUClast, Treatment A (T1) 3 mg in one nostril) of 44.9 ng·h/mL. It also gave a Cmax [4] of 10.8 ng/mL, a Vd/F [4] of 1090 L and a concentration at 3 h [5] of 6.01 ng/mL. For the same compound, the concentration at 4 h [5] was 4.86 ng/mL, the concentration at 6 h [5] was 3.01 ng/mL and the concentration at 8 h [5] was 2.19 ng/mL. The concentration at 12 h [5] was 1.51 ng/mL, the concentration at 18 h [5] was 0.851 ng/mL and the concentration at 24 h [5] was 0.785 ng/mL. For the same compound, the concentration at 48 h [5] was 0.184 ng/mL, the concentration at 3 h [6] was 3.51 ng/mL and the concentration at 4 h [6] was 2.78 ng/mL. For the same compound, the concentration at 6 h [6] was 2.07 ng/mL, the concentration at 8 h [6] was 1.34 ng/mL and the concentration at 12 h [6] was 0.985 ng/mL. It also gave a concentration at 18 h [6] of 0.581 ng/mL, a concentration at 24 h [6] of 0.37 ng/mL and a concentration at 48 h [6] of 0.088 ng/mL. For the same compound, the concentration at 12 h [7] was 0.727 ng/mL, the concentration at 18 h [7] was 0.37 ng/mL and the concentration at 24 h [7] was 0.261 ng/mL. For the same compound, the concentration at 48 h [7] was 0 ng/mL, the half-life (human, plasma, other: intranasal (IN spray), 6 mg) was 11.3 h and the AUC(0-t) (human, plasma, other: intranasal (IN spray), 6 mg, AUC0-5 min, Treatment B (T2) 3 mg in each nostril (6 mg)) was 0.222 ng·h/mL. For the same compound, the AUC(0-t) (human, plasma, other: intranasal (IN spray), 6 mg, AUC0-5 min, Treatment C (T3) 6 mg in one nostril) was 0.146 ng·h/mL, the AUC(0-t) (human, plasma, other: intranasal (IN spray), 6 mg, AUC0-10 min, Treatment B (T2) 3 mg in each nostril (6 mg)) was 1.21 ng·h/mL and the AUC(0-t) (human, plasma, other: intranasal (IN spray), 6 mg, AUC0-10 min, Treatment C (T3) 6 mg in one nostril) was 0.988 ng·h/mL. For the same compound, the AUC(0-t) (human, plasma, other: intranasal (IN spray), 6 mg, AUC0-15 min, Treatment B (T2) 3 mg in each nostril (6 mg)) was 2.67 ng·h/mL, the AUC(0-t) (human, plasma, other: intranasal (IN spray), 6 mg, AUC0-15 min, Treatment C (T3) 6 mg in one nostril) was 2.24 ng·h/mL and the AUC(0-t) (human, plasma, other: intranasal (IN spray), 6 mg, AUC0-20 min, Treatment B (T2) 3 mg in each nostril (6 mg)) was 4.14 ng·h/mL. For the same compound, the AUC(0-t) (human, plasma, other: intranasal (IN spray), 6 mg, AUC0-20 min, Treatment C (T3) 6 mg in one nostril) was 3.53 ng·h/mL, the AUC(0-t) (human, plasma, other: intranasal (IN spray), 6 mg, AUC0-30 min, Treatment B (T2) 3 mg in each nostril (6 mg)) was 6.46 ng·h/mL and the AUC(0-t) (human, plasma, other: intranasal (IN spray), 6 mg, AUC0-30 min, Treatment C (T3) 6 mg in one nostril) was 5.58 ng·h/mL. For the same compound, the AUC(0-inf) [8] was 89.5 ng·h/mL, the AUC(0-inf) [9] was 85.7 ng·h/mL and the AUC(0-t) (human, plasma, other: intranasal (IN spray), 6 mg, AUClast, Treatment B (T2) 3 mg in each nostril (6 mg)) was 86.2 ng·h/mL. The AUC(0-t) (human, plasma, other: intranasal (IN spray), 6 mg, AUClast, Treatment C (T3) 6 mg in one nostril) was 82.1 ng·h/mL, the Cmax [8] was 22.2 ng/mL and the Vd/F [8] was 1120 L. For the same compound, the Vd/F [9] was 1190 L, the concentration at 0 h (human, plasma, other: intranasal (IN spray), 6 mg, […], Mean, Time 0.00, T3: 6 mg nalmefene HCl IN, two 0.1 mL sprays in one nostril) was 0 µg/mL and the concentration at 2.5 min (human, plasma, other: intranasal (IN spray), 6 mg, […], Mean, Time 0.0416, T3: 6 mg nalmefene HCl IN, two 0.1 mL sprays in one nostril) was 1.35 ng/mL. For the same compound, the concentration at […] (human, plasma, other: intranasal (IN spray), 6 mg, […], Mean, Time 0.0833, T3: 6 mg nalmefene HCl IN, two 0.1 mL sprays in one nostril) was 5.05 ng/mL.
